The source of these data is PubChem BioAssay (NCI).

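Following 48 hours of exposure in 96-well plates, responses at five concentrations were used to interpolate endpoints linearly. TGI denotes the concentration required for complete inhibition of growth.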

Test systems include HOP-62 NSCLC; SNB-75 CNS; OVCAR-4 ovarian; U251 CNS; SK-MEL-5 melanoma; K-562 leukemia; DU-145 prostate; UO-31 renal; SF-268 CNS.
Assay in all cases: growth of human tumour cells (NCI), 48 h

As for `C=CC[n+]1c2ccccc2n2cc([N+](=O)[O-])ccc21`, the TGI is greater than 100 µM in the assay with HOP-62 NSCLC; greater than 100 µM with SNB-75 CNS; greater than 100 µM in the assay on OVCAR-4 ovarian; greater than 100 µM with U251 CNS; 42 µM with SK-MEL-5 melanoma; 59.2 µM in the assay on K-562 leukemia. Also, the TGI in the assay on DU-145 prostate and in the assay with UO-31 renal was greater than 100 µM each time.

Take `Cc1c(C(=O)OCc2ccccc2)[n+](=O)c2cc(Cl)c(Cl)cc2n1[O-]`: the TGI was 30.5 µM with HOP-62 NSCLC; 39.8 µM with SF-268 CNS; 26.9 µM in the assay with OVCAR-4 ovarian; greater than 100 µM in the assay on U251 CNS; 28.2 µM in the assay on SK-MEL-5 melanoma; 57.6 µM in the assay on K-562 leukemia. In addition, the TGI in the assay with DU-145 prostate worked out at 27.6 µM; in the assay on UO-31 renal it was 32 µM.

Consider `Cc1ccccc1N=C(N)Nc1ccccc1C`, for which the TGI in the assay on HOP-62 NSCLC, in the assay on SNB-75 CNS, with SF-268 CNS, in the assay on OVCAR-4 ovarian, with U251 CNS and in the assay with SK-MEL-5 melanoma was greater than 100 µM throughout. Also, the TGI with K-562 leukemia and in the assay on DU-145 prostate was greater than 100 µM in each case.

In the case of `Nc1nc(Cl)cc(NC23CC4CC(CC(C4)C2)C3)n1`, the TGI was greater than 100 µM in the assay on HOP-62 NSCLC; 90.8 µM with SNB-75 CNS; greater than 100 µM in the assay on SF-268 CNS; greater than 100 µM in the assay with OVCAR-4 ovarian; greater than 100 µM with U251 CNS; greater than 100 µM in the assay with K-562 leukemia. Moreover, the TGI in the assay with DU-145 prostate and in the assay on UO-31 renal was greater than 100 µM in each case.

For `O=c1oc(C(C(F)(F)F)C(F)(F)F)nc2ccccc12`, the TGI with HOP-62 NSCLC, with OVCAR-4 ovarian, in the assay with U251 CNS, in the assay on SK-MEL-5 melanoma, in the assay with K-562 leukemia and in the assay with UO-31 renal was greater than 100 µM each time.

For the compound `C/C(=N\Nc1nc2cc(C(F)(F)F)ccc2s1)c1ccccn1`, the TGI with HOP-62 NSCLC is 13.7 µM; in the assay with SNB-75 CNS it was 11.3 µM; with SF-268 CNS it was 3.19 µM; in the assay on OVCAR-4 ovarian it was 32.6 µM; with SK-MEL-5 melanoma, 12.1 µM; with K-562 leukemia it was greater than 100 µM. The TGI in the assay on DU-145 prostate is 3.98 µM; with UO-31 renal, 4.89 µM.

Take `COc1cc(C2C(Cl)C(=O)N2c2c(C)n(C)n(-c3ccccc3)c2=O)ccc1O` (stereo not given): the TGI with HOP-62 NSCLC is 73.2 µM; with SF-268 CNS, 75.5 µM; with OVCAR-4 ovarian, 37.6 µM; in the assay on U251 CNS it was 38 µM; with SK-MEL-5 melanoma it was 53.7 µM; with K-562 leukemia, greater than 100 µM. Moreover, the values for the TGI in the assay on DU-145 prostate and in the assay with UO-31 renal were greater than 100 µM and 32.9 µM, respectively.

Turning to `CCOP(=O)(O)CN1CCNCCN(CP(=O)(O)OCC)CCNCC1`, the TGI in the assay with HOP-62 NSCLC, with SNB-75 CNS, in the assay on OVCAR-4 ovarian, with U251 CNS, in the assay with SK-MEL-5 melanoma and in the assay with K-562 leukemia was greater than 100 µM in each case. Moreover, the TGI in the assay with DU-145 prostate and in the assay on UO-31 renal was greater than 100 µM throughout.

Regarding `CCN(CC)C(=S)SS(=O)(=O)c1cccc(N)c1`, the TGI in the assay with HOP-62 NSCLC, in the assay with SF-268 CNS, in the assay with OVCAR-4 ovarian, in the assay on U251 CNS, in the assay on SK-MEL-5 melanoma and in the assay on K-562 leukemia was greater than 100 µM each time. For the same compound, the TGI in the assay on DU-145 prostate and in the assay on UO-31 renal was greater than 100 µM each time.

For the compound `C=C(C)CC1(O[Si](C)(C)C)C(=O)C(OCC)=C1OCC` (stereo not given), the TGI in the assay on HOP-62 NSCLC, in the assay on SNB-75 CNS, with SF-268 CNS, with OVCAR-4 ovarian, in the assay on U251 CNS and in the assay with SK-MEL-5 melanoma was greater than 100 µM in each case. In addition, the TGI in the assay on DU-145 prostate and in the assay on UO-31 renal was greater than 100 µM each time.

`Cc1ccc(S(=O)(=O)Nn2c(O)c(C#N)c(-c3ccc(Cl)cc3)c(C#N)c2=O)cc1`: the TGI in the assay with HOP-62 NSCLC, with SNB-75 CNS, in the assay on SF-268 CNS, in the assay with OVCAR-4 ovarian, in the assay on U251 CNS and in the assay with SK-MEL-5 melanoma was greater than 100 µM throughout. Also, the TGI with K-562 leukemia was greater than 100 µM.

With `COc1ccc2cc(CNCCCCCCNCc3ccc4cc(OC)ccc4c3)ccc2c1`, the TGI with HOP-62 NSCLC is 3.07 µM; in the assay with SNB-75 CNS it was 2.66 µM; with U251 CNS it was 0.601 µM; in the assay with SK-MEL-5 melanoma it was 2.67 µM; in the assay with DU-145 prostate, 2.99 µM; in the assay with UO-31 renal, 3.01 µM.

Take `C/C(=N\NC(=S)N(C)C)c1cccnn1`: the TGI in the assay with HOP-62 NSCLC was greater than 100 µM; with SNB-75 CNS, greater than 100 µM; in the assay on OVCAR-4 ovarian, greater than 100 µM; in the assay on U251 CNS, greater than 100 µM; in the assay on SK-MEL-5 melanoma it was greater than 20.7 µM; in the assay with K-562 leukemia it was greater than 100 µM. Further, the TGI in the assay on DU-145 prostate is greater than 100 µM; with UO-31 renal it was 5.04 µM.

`Cn1c(=O)oc2nc(-c3ccccc3)cc(C(F)(F)F)c21`: the TGI in the assay with HOP-62 NSCLC, in the assay on SNB-75 CNS, in the assay with SF-268 CNS, with OVCAR-4 ovarian, with U251 CNS and with SK-MEL-5 melanoma was greater than 100 µM each time. In addition, the TGI with DU-145 prostate and in the assay on UO-31 renal was greater than 100 µM each time.

As for `c1ccc(CN2CCC(Nc3ccccc3)(c3nnnn3Cc3ccccc3)CC2)cc1`, the TGI is greater than 100 µM in the assay on HOP-62 NSCLC; 92.6 µM in the assay with SNB-75 CNS; greater than 100 µM in the assay on SF-268 CNS; greater than 100 µM in the assay on OVCAR-4 ovarian; greater than 100 µM in the assay on U251 CNS; 25.6 µM in the assay with SK-MEL-5 melanoma. The TGI in the assay on DU-145 prostate was greater than 100 µM; in the assay with UO-31 renal it was 26.6 µM.

For `Cn1c(-c2ccc(/C=N/NC(=S)N/N=C/c3ccc(-c4c[n+]5ccsc5n4C)cc3)cc2)c[n+]2ccsc12`, the TGI in the assay on HOP-62 NSCLC, in the assay with SNB-75 CNS, in the assay on SF-268 CNS, in the assay with OVCAR-4 ovarian, in the assay with U251 CNS and with SK-MEL-5 melanoma was greater than 100 µM in each case. For the same compound, the TGI in the assay on UO-31 renal was greater than 100 µM.

On to `Cc1ccc(S(=O)CC(CF)OCn2cc(C)c(=O)[nH]c2=O)cc1` (stereo not given), for which the TGI with HOP-62 NSCLC, in the assay on SNB-75 CNS, in the assay with SF-268 CNS, with OVCAR-4 ovarian, with U251 CNS and in the assay on SK-MEL-5 melanoma was greater than 100 µM in each case. Besides, the TGI in the assay with DU-145 prostate and with UO-31 renal was greater than 100 µM throughout.
